Laboratory results from patent publication US20260034135A1, “USE OF N6-BENZYLAMINOPURINE AS AN APPETITE SUPPRESSANT” (THE GOVERNING COUNCIL OF THE UNIVERSITY OF TORONTO, priority 2022, published 2026).

Experiments:
[1] = BAP in a honey emulsion fed to CD-1 mice: body weight, food and water intake; format: in vivo
Description: Male and female CD-1 mice were received at age 6-7 weeks and were acclimated on a chow diet for one week prior to experimentation. After acclimation to the facility, mice were switched to a 60% HFD. The male and female mice received HFD for 4 (male) and 5 or 16 (female) weeks prior to BAP exposure. The mice were then acclimated to the emulsion feeding protocol for 4 days prior to the start of BAP exposure using the method described in Kuster et al. (12). Two days prior to the start of the exposure period, a cohort of male mice underwent acute general anesthetic with isoflurane for baseline Bruker scanning to quantify peripheral fat mass. The mice were then weight-matched and randomly assigned to either the control or BAP group. During the exposure period, mice were restrained via scruffing (held at back of neck) and fed 200 μL of an emulsion containing 0.5% carboxymethyl cellulose and 50% honey with or without BAP at 2 hr prior to lights off at the facility daily.
[…] All mice were kept on the 60% HFD throughout the exposure period. […] On day 12, the one cohort of male mice underwent general anesthetic for the purpose of post-experiment Bruker scanning. The male mice were then fed their assigned emulsion 2 hr prior to sacrificing and tissue collection. […] Hypothalamic collected from the mice were then used to isolate RNA and quantify gene expression using quantitative reverse transcription polymerase chain reaction (qRT-PCR).

[2] = Intraperitoneal glucose tolerance test (GTT); format: in vivo, CD-1 mice; settings: male CD-1, HFD, cohort BSF
Method: […] The mice were then briefly fasted to determine the response to insulin or glucose. For the intraperitoneal glucose tolerance test, male mice were transferred to new clean cages and fasted for 6 hours prior to GTT. After 5 hours of fasting, the mice were weighed to determine their proper glucose dosage. The appropriate amount of 20% glucose solution was aliquoted for each mouse (2 g/kg). After 6 hours of fasting, the mice had their blood glucose measured via tail vein using a glucometer. This was recorded as the blood glucose at 0-minute timepoint. The mice were then intraperitoneal injected with their aliquoted glucose solution and returned to their cage. Blood glucose was measured via the tail vein 15, 30, 60, 90, and 120 minutes after glucose injection. Upon completion of GTT, the mice were returned to their cages with food and water and were closely monitored to ensure proper recovery.

Akt (PKB) = experiment: Akt (Ser473) phosphorylation by Western blot in mHypoE-46 after insulin re-exposure; format: cell-based, mouse
Method: mHypoE-46 cells were serum starved in 5.5 mM glucose (LG) DMEM for 1 hour prior to treatment with vehicle (0.1% DMSO), 100 µM BAP or H20, […] 5-Aminoimidazole-4-carboxamide ribonucleotide (AICAR) or 0 mM glucose DMEM. Protein was harvested using 1× cell lysis buffer (Cell Signaling Technologies, Inc, CST) containing protease and phosphatase inhibitors. A total of 30 μg protein was separated on a 12% SDS-polyacrylamide gels and transferred onto PVDF membranes. […] Protein density was quantified using ImageJ or the iBright Imaging System.
In order to determine if insulin signaling and sensitivity may be affected by BAP, we assessed the activity and expression of the key signal transduction cascade activated by insulin, the PI3K/Akt pathway. mHypoE-46 neurons were co-treated with 100 μM insulin or vehicle control and 100 μM BAP and vehicle control for 24 hours. […] The phosphorylation level of Akt (PKB), the downstream kinase in the PI3K/Akt signal transduction pathway was assessed. […]

mHypoE-46 cell line = experiment: RNA-sequencing (RNA-seq) of mHypoE-46 exposed to BAP; format: cell-based, mouse; settings: 100 μM BAP
Method: To assess global mRNA gene expression changes, we exposed the mHypoE-46 line to 100 μM BAP for 4 and 16 h and assess mRNA expression via RNA-sequencing (RNA-seq). […] It is already known that a decrease in mTORC1 signaling results in a decrease in Npy through decreases in p70-S6K activity (18-20). […] Specifically, the gene expression of the upstream inhibitors of mTORC1, sestrin2 (Sesn2) (21) and tuberous sclerosis complex 2 (Tsc2) were both increased with BAP; whereas the gene expression of two downstream effectors inhibited by mTORC1, 4e-BP1 (Eif4ebp1) and ULK1 (Ulk1), were increased as well, indicating an overall negative regulation of mTORC1 activity (see FIG. 42A and 42B).

[3] = male CD-1, 60% HFD, 300 mg/kg/day BAP emulsion, 11 days, cohort CCBR
[4] = male CD-1, 60% HFD, 300 mg/kg/day BAP emulsion, 14 days, cohort BSF
[5] = male CD-1, 60% HFD, 300 mg/kg/day BAP emulsion, 28 days, cohort BSF
[6] = daily oral BAP emulsion, 27 days
[7] = both 4 and 16 h, validated in mHypoE-46

Compound: c1ccc(CNc2ncnc3nc[nH]c23)cc1 [BAP, N6-benzylaminopurine]
- body weight gain on HFD ([1]; female CD-1, 16 weeks 60% HFD then 300 mg/kg/day BAP emulsion 36 days, cohort BSF): did not gain weight
- food intake vs control ([1]; female CD-1, 60% HFD, 300 mg/kg/day BAP emulsion 36 days, cohort BSF): did not eat significantly less HFD
- body weight change vs control ([1]; male CD-1, 60% HFD, 75 mg/kg/day BAP emulsion, 14 days): no change
- body weight gain on HFD ([1]; male CD-1, 60% HFD, 150 mg/kg/day BAP emulsion, 14 days, cohort BSF): did not gain weight
- body weight loss [1, 3]: 5%
- reduction in HFD food intake vs control group over the exposure period [1, 3]: 22%
- body weight loss [1, 4]: 1.3%
- daily average food intake vs control [1, 4]: did not eat significantly less HFD
- body weight loss ([1]; male CD-1, 60% HFD, 300 mg/kg/day BAP emulsion, 14 days, dose study, cohort BSF): 1.1%
- food intake ([1]; male CD-1, 60% HFD, 300 mg/kg/day BAP emulsion, 14 days, dose study, significant by unpaired t-test at 8 days onward): trend towards a decrease in food intake that did not reach significance
- body weight loss [1, 5]: 5%
- reduction in daily average food intake vs control [1, 5]: 13%
- cumulative daily food intake ([1]; male CD-1, 60% HFD, 75, 150, 300 mg/kg BAP emulsion, 14 days): do not have significant changes in food intake
- glucose uptake in a GTT ([2]; BAP emulsion 14 days): no change in glucose uptake
- fasting blood glucose vs HFD without BAP (GTT) [2, 6]: significantly lower
- glucose response in GTT [2, 6]: improved glucose response
- Akt phosphorylation at Ser473 upon 15 minutes of insulin exposure (Akt (PKB); 100 μM BAP 24 hours, neurons pre-treated with vehicle alone, re-exposed to 100 nM insulin): significantly increased
- induction of Akt phosphorylation by BAP under insulin-induced cellular insulin resistance (Akt (PKB); 100 μM BAP, neurons pre-treated with 100 μM insulin for 24 hours): not observed
- 4e-BPI (Eif4ebp I), RNA-seq data 4 h (mHypoE-46 cell line; 4 h): ↑
- S6K (Rps6kbI), RNA-seq data 4 h (mHypoE-46 cell line; 4 h): ns
- Sestrin2 (Sesn2), RNA-seq data 4 h (mHypoE-46 cell line; 4 h): ↑
- TSC2 (Tsc2), RNA-seq data 4 h (mHypoE-46 cell line; 4 h): ns
- ULK I (Ulk I), RNA-seq data 4 h (mHypoE-46 cell line; 4 h): ns
- 4e-BPI (Eif4ebp I), RNA-seq data 16 h (mHypoE-46 cell line; 16 h): ↑
- S6K (Rps6kbI), RNA-seq data 16 h (mHypoE-46 cell line; 16 h): ↓
- Sestrin2 (Sesn2), RNA-seq data 16 h (mHypoE-46 cell line; 16 h): ↑
- TSC2 (Tsc2), RNA-seq data 16 h (mHypoE-46 cell line; 16 h): ↑
- ULK I (Ulk I), RNA-seq data 16 h (mHypoE-46 cell line; 16 h): ↑
- early growth response protein 1 (Egr1) gene expression (mHypoE-46 cell line; [7]): highly downregulated
- early growth response protein 3 (Egr3) gene expression (mHypoE-46 cell line; [7]): highly downregulated
- c-fos gene expression (mHypoE-46 cell line; validated in mHypoE-46): significantly downregulated
- c-jun gene expression (mHypoE-46 cell line; validated in mHypoE-46): significantly downregulated
